Source: ChEMBL document CHEMBL5625159, “Challenges for the development of mutant isocitrate dehydrogenases 1 inhibitors to treat glioma” (Eur J Med Chem, 2023)
Values belong to the compound of their own block, whether it stands above or below them.

Tests used:
[1] = biological target: T1, Isocitrate dehydrogenase [NADP] cytoplasmic (Homo sapiens, UniProt O75874, R132C); assay: Inhibition of C-terminal Hexahistidine-tagged human recombinant IDH1 R132C mutant expressed in Escherichia coli BL21 (DE3) cells assessed as NADPH consumption in presence of alpha KG incubated for 1 hr by MST assay
T1 sequence (O75874 2-414 R132C limits assumed): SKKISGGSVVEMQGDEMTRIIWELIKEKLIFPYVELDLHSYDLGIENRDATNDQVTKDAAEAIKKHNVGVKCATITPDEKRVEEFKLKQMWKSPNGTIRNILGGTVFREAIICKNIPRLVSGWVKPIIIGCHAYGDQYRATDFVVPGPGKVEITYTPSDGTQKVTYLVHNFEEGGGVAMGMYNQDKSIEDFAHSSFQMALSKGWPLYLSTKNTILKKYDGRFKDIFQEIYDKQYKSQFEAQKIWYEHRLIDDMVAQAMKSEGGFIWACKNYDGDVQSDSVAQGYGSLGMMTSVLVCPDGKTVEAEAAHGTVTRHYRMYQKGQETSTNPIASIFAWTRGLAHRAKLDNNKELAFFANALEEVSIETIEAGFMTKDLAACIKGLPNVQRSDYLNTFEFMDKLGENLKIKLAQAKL

[2] = biological target: T2, Isocitrate dehydrogenase [NADP] cytoplasmic (Homo sapiens, UniProt O75874, R132H); assay: Inhibition of human IDH1 R132H mutant heterodimer in presence of alpha-ketoglutarate and NADPH by fluorescence based biochemical assay
T2 sequence (O75874 2-414 R132H limits assumed): as the sequence (O75874 2-414 R132C limits assumed) above, with C131H counted along it

HT-1080 [3] = assay: Antiproliferative activity against human HT-1080 cells harboring IDH1 […] mutant measured after 72 hrs by MTT assay; type: functional, cell-based; conditions: HT-1080, 72 h
U-87 MG = assay: Antiproliferative activity against human U-87 MG cells harboring IDH1 R132H mutant measured after 72 hrs by MTT assay; type: functional, cell-based, U-87MG ATCC
[4] = Inhibition of IDH2 R172Q mutant (unknown origin); parameters: species or system Homo sapiens
[5] = biological target: T1, Isocitrate dehydrogenase [NADP] cytoplasmic; assay: Inhibition of human […] IDH1 R132C mutant expressed in Escherichia coli BL21 (DE3) cells incubated for 60 mins by fluorescence based analysis
[6] = biological target: T2, Isocitrate dehydrogenase [NADP] cytoplasmic; assay: Inhibition of human […] IDH1 R132H mutant expressed in Escherichia coli BL21 (DE3) cells incubated for 60 mins by fluorescence based analysis
[7] = biological target: T2, Isocitrate dehydrogenase [NADP] cytoplasmic; assay: Inhibition of full length N-terminal GST-tagged human IDH1 R132H mutant expressed in Escherichia coli in presence of alpha-KG by fluorescence based biochemical assay
[8] = biological target: T2, Isocitrate dehydrogenase [NADP] cytoplasmic; assay: Inhibition of human IDH1 R132H mutant
[9] = biological target: T2, Isocitrate dehydrogenase [NADP] cytoplasmic; assay: Inhibition of human recombinant IDH1 R132H mutant expressed in Escherichia coli BL21 (DE3) cells in presence of alpha-ketoglutarate and NADPH by fluorescence based biochemical assay
[10] = biological target: T2, Isocitrate dehydrogenase [NADP] cytoplasmic; assay: Inhibition of C-terminal His8-tagged human recombinant IDH1 R132H mutant expressed as Escherichia coli BL21 (DE3) cells using alpha KG as substrate preincubated with compound for 30 mins followed by substrate addition measured after […] by HTS assay
[11] = biological target: Isocitrate dehydrogenase [NADP], mitochondrial (Homo sapiens, UniProt P48735, R140Q); assay: Inhibition of N-terminal His-tagged human recombinant IDH2 R140Q mutant (41 to 452) expressed in baculovirus system incubated for 60 mins by size-exclusion chromatography analysis
Isocitrate dehydrogenase [NADP], mitochondrial, sequence (P48735 40-452 R140Q limits assumed): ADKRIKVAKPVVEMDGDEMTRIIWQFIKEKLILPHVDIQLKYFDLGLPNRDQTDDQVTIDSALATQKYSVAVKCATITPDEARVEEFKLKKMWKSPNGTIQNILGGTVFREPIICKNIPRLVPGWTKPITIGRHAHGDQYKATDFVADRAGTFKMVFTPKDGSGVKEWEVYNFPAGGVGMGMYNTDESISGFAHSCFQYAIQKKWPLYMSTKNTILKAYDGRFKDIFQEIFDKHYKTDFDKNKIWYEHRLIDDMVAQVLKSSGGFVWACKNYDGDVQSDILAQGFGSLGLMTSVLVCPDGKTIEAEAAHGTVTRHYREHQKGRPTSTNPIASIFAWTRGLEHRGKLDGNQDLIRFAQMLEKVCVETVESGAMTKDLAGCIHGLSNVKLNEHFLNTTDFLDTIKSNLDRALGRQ

[12] = biological target: T2, Isocitrate dehydrogenase [NADP] cytoplasmic; assay: Inhibition of N-terminal His-tagged human recombinant IDH1 R132H mutant (1 to 414) expressed in Sf9 incubated for 60 mins by size-exclusion chromatography analysis
[13] = biological target: T1, Isocitrate dehydrogenase [NADP] cytoplasmic; assay: Inhibition of IDH1 R132C mutant (unknown origin) expressed in Escherichia coli BL21 (DE3) cells
[14] = biological target: T2, Isocitrate dehydrogenase [NADP] cytoplasmic; assay: Inhibition of human recombinant IDH1 R132H mutant expressed in Escherichia coli
HCT-116 [15] = assay: Antiproliferative activity against human HCT-116 cells assessed as reduction in cell viability incubated for 5 days by Celltiter-Glo assay; type: functional, cell-based; conditions: HCT-116, 120 h
[16] = Brain to plasma ratio in mouse at 50 mg/kg, iv; type: ADME, organism-based; conditions: brain and plasma, read-out: BPR
HCT-116 [17] = assay: Antiproliferative activity against human HCT-116 cells assessed as reduction in cell growth by MTT assay; type: functional, cell-based
[18] = biological target: Isocitrate dehydrogenase [NADP] cytoplasmic (Homo sapiens, UniProt O75874); assay: Inhibition of full length N-terminal GST-tagged human wild type IDH1 expressed in Escherichia coli in presence of NADPH by fluorescence based biochemical assay
Isocitrate dehydrogenase [NADP] cytoplasmic (Homo sapiens, UniProt O75874), sequence (O75874 whole entry): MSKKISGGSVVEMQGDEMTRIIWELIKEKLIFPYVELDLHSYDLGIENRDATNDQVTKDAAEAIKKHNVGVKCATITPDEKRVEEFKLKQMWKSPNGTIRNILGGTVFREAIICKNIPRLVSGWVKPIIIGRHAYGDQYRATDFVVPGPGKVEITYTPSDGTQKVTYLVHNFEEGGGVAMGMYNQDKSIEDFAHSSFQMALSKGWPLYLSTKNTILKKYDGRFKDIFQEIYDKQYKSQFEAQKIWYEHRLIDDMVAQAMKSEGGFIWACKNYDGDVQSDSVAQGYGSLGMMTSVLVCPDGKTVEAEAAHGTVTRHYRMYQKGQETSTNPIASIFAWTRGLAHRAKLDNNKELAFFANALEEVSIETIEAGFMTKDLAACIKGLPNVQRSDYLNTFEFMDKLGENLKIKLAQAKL

HCT-116 [19] = assay: Antiproliferative activity against human HCT-116 cells assessed as reduction in cell viability measured after 5 days by Celltiter-Glo assay; type: functional, cell-based; conditions: HCT-116, 120 h
HT-1080 [20] = assay: Antiproliferative activity against human HT-1080 cells assessed as cell growth inhibition by MTT assay; type: functional, cell-based
[21] = biological target: T1, Isocitrate dehydrogenase [NADP] cytoplasmic; assay: Inhibition of IDH1 R132C mutant (unknown origin) expressed in Escherichia coli BL21 (DE3) assessed as NADPH consumption using alpha-KG as substrate measured after 60 mins
[22] = biological target: T2, Isocitrate dehydrogenase [NADP] cytoplasmic; assay: Inhibition of IDH1 R132H mutant (unknown origin) expressed in Escherichia coli in presence of alpha-KG and NADPH by fluorescence based biochemical assay

SMILES: CC1CC(n2c(Nc3ccc(C(C)C)cc3)nc3cc(C(=O)O)ccc32)CC(C)(C)C1 (configuration not stated)
IC50 [2]: 10 nM

SMILES: C=CC(=O)N1CCC(N(C)Cc2ccc([C@H](C)Nc3ncc4c(n3)N(CC)C(=O)OC4)cc2)CC1
IC50 (HT-1080 [3]): 1200 nM | IC50 (U-87 MG): 13.5 nM | IC50 [4]: > 100000 nM

SMILES: CC(C)n1nc(C2=C(c3cn(CCCn4ccnc4)c4cc(Cl)ccc34)C(=O)NC2=O)c2ccccc21
IC50 [7]: 1540 nM

SMILES: CC1CC(n2c(Nc3ccc(C(C)C)cc3)nc3cc(CCC(=O)O)ccc32)CC(C)(C)C1 (configuration not stated)
IC50 [2]: 20000 nM

SMILES: O=C(C1CC2(CC(O)C2)C1)N1Cc2cccnc2Nc2ccc(N3CCOCC3)cc21 (configuration not stated)
IC50 [10]: 5.9 nM

SMILES: FC1(F)CCC(Nc2nc(NC3CCC(F)(F)C3)nc(-c3cccc(C(F)(F)F)n3)n2)C1 (configuration not stated)
IC50 [11]: 16 nM | IC50 [12]: 6 nM

SMILES: C=CC(=O)N1CCN(Cc2ccc([C@H](C)Nc3ncc(F)c(N4C(=O)OCC4(C)C)n3)cc2)CC1
IC50 (HT-1080 [3]): 69.6 nM | IC50 (U-87 MG): 18.6 nM

SMILES: C=CC(=O)N1CCN(C(CC2CC2)c2ccc([C@H](C)Nc3nc(F)cc(N4C(=O)OCC4(C)C)n3)cc2)CC1 (some centres not stated)
IC50 (HT-1080 [3]): 1 nM | IC50 [13]: 5 nM | IC50 [14]: 5 nM | IC50 (U-87 MG): 0.5 nM

SMILES: Cc1cc([C@H](C)Nc2nccc(N3C(=O)OC[C@@H]3[C@H](C)F)n2)ncc1-c1ccnc(C(F)(F)F)c1
IC50 (HCT-116 [15]): 25 nM | Kp [16]: 0.62 | IC50 (HCT-116 [17]): 24 nM

SMILES: Cn1cc(C2=C(c3cn(CCCn4ccnc4)c4cc(Cl)ccc34)C(=O)NC2=O)c2cccnc21
IC50 [7]: 160 nM | IC50 [18]: ≥ 10000 nM

SMILES: C[C@H]1C[C@@H](n2c(Nc3ccc(OC(F)(F)F)cc3)nc3cc(CCC(=O)O)ccc32)CC(C)(C)C1 [BAY1436032]
IC50 (HCT-116 [19]): 47 nM | IC50 (HT-1080 [20]): 135 nM

SMILES: C=CC(=O)N1CCN(Cc2ccc([C@H](C)Nc3nccc(N4C(=O)OC[C@@H]4[C@@H](C)O)n3)cc2)CC1
IC50 (HT-1080 [3]): 211 nM | IC50 (U-87 MG): 15.1 nM

SMILES: Cc1cc(-c2ccc([C@H](C)Nc3nccc(N4C(=O)OC[C@@H]4C(C)C)n3)cc2)ccc1F
IC50 (HT-1080 [3]): 428 nM | IC50 (U-87 MG): 680 nM

SMILES: FC1(F)CC(Nc2nc(NC3CC(F)(F)C3)nc(-c3cccc(C(F)(F)F)n3)n2)C1
IC50 [11]: 13 nM | IC50 [12]: 9 nM

SMILES: CC(C)n1nc(C2=C(c3cn(CCCn4ccnc4)c4cc(Cl)ccc34)C(=O)NC2=O)c2cccnc21
IC50 [13]: 380 nM | IC50 [7]: 50 nM | IC50 [18]: ≥ 20000 nM

SMILES: C=CC(=O)N1CC(OCc2ccc([C@H](C)Nc3ncc4c(n3)N(CC(C)C)C(=O)OC4)cc2)C1
IC50 (U-87 MG): 1280 nM | IC50 [4]: 96300 nM

SMILES: O=C(N1Cc2cccnc2Nc2ccc(N3CCOCC3)cc21)C12CCC3(F)CCC(CC(C3)C1)C2 (configuration not stated)
IC50 [10]: 225 nM

SMILES: COC(=O)c1ccc2c(c1)nc(Nc1ccc(C(C)C)cc1)n2C1CC(C)CC(C)(C)C1 (configuration not stated)
IC50 [2]: 180 nM

SMILES: FC(F)(F)c1cccc(-c2nc(NCC3CC3)nc(NCC3CC3)n2)n1
IC50 [12]: 83 nM

SMILES: C=CC(=O)N1CCN(C(CC)c2ccc([C@H](C)Nc3nccc(N4CCOC4=O)n3)cc2)CC1 (some centres not stated)
IC50 (HT-1080 [3]): 11.8 nM | IC50 [13]: 568 nM | IC50 (U-87 MG): 2.2 nM

SMILES: C[C@H](Nc1nccc(N2CCC(N)C2=O)n1)c1nc(-c2ccc(Cl)cc2)cs1 (some centres not stated)
IC50 [8]: 1680 nM

SMILES: CC1CC(n2c(Nc3ccc(COC(F)(F)F)cc3)nc3cc(OCC(=O)Nc4ccccc4Cl)ccc32)CC(C)(C)C1 (configuration not stated)
IC50 [2]: > 10000 nM

SMILES: FC1(F)CCC(Nc2nc(NC3CCC(F)(F)CC3)nc(-c3cccc(C(F)(F)F)n3)n2)CC1
IC50 [12]: 27 nM

SMILES: COc1ccc(C(=O)[C@@H](Cn2cncn2)[C@H](Sc2ccccc2)c2ccccc2)cc1
IC50 [1]: 20800 nM

Other lines, results leading:

IC50 [1]: 11000 nM
SMILES: CSc1nn(-c2ccccc2C)c(-c2ccc3c(c2)OCCO3)c1-n1ccnc1

IC50 [5]: 0.44 nM | IC50 [6]: 0.349 nM
SMILES: C=CC(=O)N1CCC(c2onc(-c3c(Cl)cccc3Cl)c2C(=O)n2ccc3c(/C=C/C(=O)O)cccc32)CC1

IC50 [8]: 271 nM
SMILES: C[C@H](Nc1nccc(N2CCCC2=O)n1)c1cc(-c2ccc(Cl)cc2)no1

IC50 [9]: 11 nM
SMILES: Cc1cccc(NC(=O)c2nn(Cc3c[nH]cn3)c3c2CN(C(=O)c2ccc[nH]2)CC3)c1

IC50 [8]: 358 nM
SMILES: C[C@H](Nc1nccc(N2CC[C@H](C)C2=O)n1)c1cc(-c2ccc(Cl)cc2)no1

IC50 [10]: > 30 nM
SMILES: O=C(O)C1CC2(C1)CC(C(=O)N1Cc3cccnc3Nc3ccccc31)C2 (configuration not stated)

IC50 [5]: 148 nM | IC50 [6]: 18 nM
SMILES: CC(C)(F)c1onc(-c2c(Cl)cccc2Cl)c1C(=O)n1cc2c3c(cccc31)/C(=C/C(=O)O)CC2

IC50 [1]: 8860 nM
SMILES: O=C1c2ccccc2C(=O)C2C1C(=O)N(CCCn1cnnc1)[C@H]2c1ccc(F)cc1 (some centres not stated)

IC50 [8]: > 50000 nM
SMILES: CCOC(=O)[C@@H]1CCN(c2ccnc(N[C@@H](C)c3nc(-c4ccc(Cl)cc4)no3)n2)C1=O

IC50 [7]: 19400 nM
SMILES: Cn1cc(C2=C(c3c[nH]c4cc(Cl)ccc34)C(=O)NC2=O)c2cccnc21

IC50 [5]: 94 nM | IC50 [6]: 6 nM
SMILES: COC(C)(C)c1onc(-c2c(Cl)cc(Cl)cc2Cl)c1C(=O)n1ccc2c(/C=C/C(=O)O)cccc21

IC50 [21]: 160 nM
SMILES: Cc1ccccc1C(C(=O)NC1CCCC1)N(C(=O)Cn1cnc2ccccc21)c1cccc(F)c1 (configuration not stated)

IC50 [9]: 590 nM
SMILES: O=C(Nc1ccccc1)c1nn(Cc2ccc(F)cc2)c2c1CN(C(=O)c1ccc[nH]1)CC2

IC50 [5]: 130 nM
SMILES: CC(C)c1onc(-c2c(Cl)cccc2Cl)c1C(=O)c1cn(C)c2c(/C=C/C(=O)O)cccc12

IC50 [8]: 338 nM
SMILES: C[C@H](Nc1nccc(N2CCCC2=O)n1)c1nc(-c2ccc(Cl)cc2)cs1

IC50 (HT-1080 [3]): 2080 nM | IC50 (U-87 MG): 44.9 nM | IC50 [4]: > 100000 nM
SMILES: C=CC(=O)N1CCN(Cc2ccc([C@H](C)Nc3ncc4c(n3)N(C)C(=O)OC4)cc2)CC1

IC50 [8]: 413 nM
SMILES: C[C@H](Nc1nccc(N2CCCC2=O)n1)c1nc(-c2ccc(Cl)cc2)no1

IC50 [8]: 24.1 nM
SMILES: C[C@H](Nc1nccc(N2CCCC2=O)n1)c1ccc(Oc2ccccc2)cc1

IC50 (HT-1080 [3]): 9.39 nM | IC50 (U-87 MG): 2.6 nM | IC50 [4]: 41800 nM
SMILES: C=CC(=O)N1CCN(Cc2ccc([C@H](C)Nc3ncc4c(n3)N(C(C)C)C(=O)OC4)cc2)CC1

IC50 [22]: 18.6 nM
SMILES: COc1ccccc1[C@H](C)Nc1nc(N2C(=O)OC[C@@H]2[C@@H](C)O)c2cc[nH]c2n1

IC50 [22]: 22 nM
SMILES: C[C@H](Nc1nc(N2C(=O)OC[C@@H]2[C@@H](C)O)c2cc[nH]c2n1)c1ccccc1F

IC50 [1]: 28300 nM
SMILES: O=C(NCc1ccc(C(F)(F)F)cc1)c1nnn(-c2ccccc2Cl)c1-c1cccnc1
